In the supplement of paper PMC6315032:

Experiments:
Assay in all cases: apparent dissociation constant (pKDapp, Kinobeads competition, Cheng-Prusoff corrected) (-log10 M); higher = tighter binding
CAMK2G = CAMK2G (UniProt Q13555); details: affinity matrix / lysate: Kinobeads, mixed HEK293/K-562/placenta lysate
MAP3K15 = MAP3K15 (UniProt Q6ZN16); details: affinity matrix / lysate: Kinobeads, mixed HEK293/K-562/placenta lysate
AXL = AXL (UniProt P30530); details: affinity matrix / lysate: Kinobeads, mixed HEK293/K-562/placenta lysate
CHEK1 = CHEK1 (UniProt O14757); details: affinity matrix / lysate: Kinobeads, mixed HEK293/K-562/placenta lysate
EPHB3 = EPHB3 (UniProt P54753); details: affinity matrix / lysate: Kinobeads, mixed HEK293/K-562/placenta lysate
TTK = TTK (UniProt P33981); details: affinity matrix / lysate: Kinobeads, mixed HEK293/K-562/placenta lysate
PIM1 = PIM1 (UniProt P11309); details: affinity matrix / lysate: Kinobeads, mixed HEK293/K-562/placenta lysate
CRKRS = CRKRS (UniProt Q9NYV4); details: affinity matrix / lysate: Kinobeads, mixed HEK293/K-562/placenta lysate
KIAA1804 = KIAA1804 (UniProt Q5TCX8); details: affinity matrix / lysate: Kinobeads, mixed HEK293/K-562/placenta lysate
AAK1 = AAK1 (UniProt Q2M2I8); details: affinity matrix / lysate: Kinobeads, mixed HEK293/K-562/placenta lysate
MAP3K6 = MAP3K6 (UniProt O95382); details: affinity matrix / lysate: Kinobeads, mixed HEK293/K-562/placenta lysate
CDKL5 = CDKL5 (UniProt O76039); details: affinity matrix / lysate: Kinobeads, mixed HEK293/K-562/placenta lysate
STK10 = STK10 (UniProt O94804); details: affinity matrix / lysate: Kinobeads, mixed HEK293/K-562/placenta lysate
BUB1 = BUB1 (UniProt O43683); details: affinity matrix / lysate: Kinobeads, mixed HEK293/K-562/placenta lysate
ICK = ICK (UniProt Q9UPZ9); details: affinity matrix / lysate: Kinobeads, mixed HEK293/K-562/placenta lysate
MAP2K2 = MAP2K2 (UniProt P36507); details: affinity matrix / lysate: Kinobeads, mixed HEK293/K-562/placenta lysate
PI4K2B = PI4K2B (UniProt Q8TCG2); details: affinity matrix / lysate: Lipid Kinobeads, mixed HeLa/Jurkat/K-562 lysate
DAPK3 = DAPK3 (UniProt O43293); details: affinity matrix / lysate: Kinobeads, mixed HEK293/K-562/placenta lysate
GSK3A = GSK3A (UniProt P49840); details: affinity matrix / lysate: Kinobeads, mixed HEK293/K-562/placenta lysate
PIP4K2A = PIP4K2A (UniProt P48426); details: affinity matrix / lysate: Kinobeads, mixed HEK293/K-562/placenta lysate
MAST2 = MAST2 (UniProt Q6P0Q8); details: affinity matrix / lysate: Kinobeads, mixed HEK293/K-562/placenta lysate
MAP2K5 = MAP2K5 (UniProt Q13163); details: affinity matrix / lysate: Kinobeads, mixed HEK293/K-562/placenta lysate
ABL2 = ABL2 (UniProt P42684); details: affinity matrix / lysate: Kinobeads, mixed HEK293/K-562/placenta lysate
FLT4 = FLT4 (UniProt P35916); details: affinity matrix / lysate: Kinobeads, mixed HEK293/K-562/placenta lysate
CSNK2A2 = CSNK2A2 (UniProt P19784)
PCTK2 = PCTK2 (UniProt Q00537); details: affinity matrix / lysate: Kinobeads, mixed HEK293/K-562/placenta lysate
NEK1 = NEK1 (UniProt Q96PY6); details: affinity matrix / lysate: Kinobeads, mixed HEK293/K-562/placenta lysate
RPS6KA4 = RPS6KA4 (UniProt O75676); details: affinity matrix / lysate: Kinobeads, mixed HEK293/K-562/placenta lysate
STK17B = STK17B (UniProt O94768); details: affinity matrix / lysate: Kinobeads, mixed HEK293/K-562/placenta lysate
PIK3CG = PIK3CG (UniProt P48736); details: affinity matrix / lysate: Lipid Kinobeads, mixed HeLa/Jurkat/K-562 lysate
TBK1 = TBK1 (UniProt Q9UHD2); details: affinity matrix / lysate: Kinobeads, mixed HEK293/K-562/placenta lysate
AURKA = AURKA (UniProt O14965); details: affinity matrix / lysate: Kinobeads, mixed HEK293/K-562/placenta lysate
YES1 = YES1 (UniProt P07947); details: affinity matrix / lysate: Kinobeads, mixed HEK293/K-562/placenta lysate
[1] = affinity matrix / lysate: Kinobeads, mixed HEK293/K-562/placenta lysate
[2] = affinity matrix / lysate: Lipid Kinobeads, mixed HeLa/Jurkat/K-562 lysate

Measured: apparent dissociation constant (-log10 M)

COc1ccc(-c2ccc3c(N4CCOC[C@@H]4C)nc(N4CCOC[C@@H]4C)nc3n2)cc1CO [AZD8055]
< 6: CAMK2G | MAP3K15 | AXL | CHEK1 | EPHB3 | TTK | PIM1 | CRKRS | KIAA1804 | AAK1 | MAP3K6 | CDKL5 | STK10 | BUB1 | ICK | MAP2K2 | PI4K2B | DAPK3 | GSK3A | PIP4K2A | MAST2 | MAP2K5 | ABL2 | FLT4 | CSNK2A2; [1] | CSNK2A2; [2] | PCTK2 | NEK1 | RPS6KA4 | STK17B | PIK3CG | TBK1 | AURKA | YES1

CCNC(=O)Nc1ccc(-c2nc(N3CCOC[C@@H]3C)c3c(n2)C(C)(C)S(=O)(=O)C3)cc1 [CZ415]
< 6: CAMK2G | MAP3K15 | AXL | CHEK1 | EPHB3 | TTK | PIM1 | CRKRS | KIAA1804 | AAK1 | MAP3K6 | CDKL5 | STK10 | BUB1 | ICK | MAP2K2 | PI4K2B | DAPK3 | GSK3A | PIP4K2A | MAST2 | MAP2K5 | ABL2 | FLT4 | CSNK2A2; [1] | CSNK2A2; [2] | PCTK2 | NEK1 | RPS6KA4 | STK17B | PIK3CG | TBK1 | AURKA | YES1
